Measurements reported in US11944624B2, “Peptide and small molecule agonists of EphA and their uses” (CASE WESTERN RESERVE UNIVERSITY, priority 2017, dated 2024).
“Also recorded” adds a separate entry of the source.

Legend:
[1] = biological target: T1, EphA2 (Homo sapiens, UniProt P29317); assay: EphA2 activation in MDA-MB-231-A2 cells (phosphorylated/total EphA2, Example 2); format: cell-based; set-up: expressed in transfected cells; host or cells: MDA-MB-231 (MDA-231-A2 / MDA-MB-231-A2), puromycin selected; details: MDA-MB-231-A2 cells, 2, 10 and 50 μM, 30 min
Procedure: To evaluate the compounds, we utilized a MDA-MB-231 breast cancer cell line which overexpresses EphA2 receptor (MDA-MB-231-A2). The ratio of phosphorylated EphA2 protein over total EphA2 protein was measured after treatment with the various compounds as the readout for receptor activation. All the compounds were examined with doses of 2, 10, and 50 μM, and we used 50 μM Doxazosin and 0.5% DMSO as the positive and negative control, respectively (FIG. 27). […] Inspired by the dimer design, we also generated dimer structure based on the piperazine ring as the core as illustrated by compounds 25 and 26.
MDA-MB-231 EphA2-overexpressing cells were plated in 12-well dishes at a density of 100,000 cells/well and grown for 24 hours prior to stimulation with appropriate compounds and ephrins for 30 min and 10 min, respectively. Compounds were prepared in DMSO at 200 times the final concentrations and 0.5% DMSO was used as vehicle control. Following treatment, cells were washed and lysed in modified RIPA Buffer (20 mM Tris-HCl pH 7.4, 20 mM NaF, 150 mM NaCl, 10% glycerol, 0.1% SDS, 0.5% DCA, 2 mM EDTA, 1% Triton X-100, 2 mM Na3VO4, and protease inhibitors, including 1 mM phenylmethylsulphonyl fluoride, and 2 μg/ml each of aprotinin and leupeptin) for 20 min, followed by immunoprecipitation. For immunoprecipitation, lysates were combined with 10 μg of ephrin-A1-Fc and 10-15 μl of Gamma-Bind Protein G beads (GE Healthcare Bioscience, Pittsburgh, PA) and rotated for 3 hours at 4° C. 10 μg of human unconjugated Fc was used as a negative control. Beads were pelleted at 9,000 rpm for 2 min at 4° C., and washed twice with 1 ml of IP Wash Buffer (20 mM Tris, pH 7.4, 10% glycerol, 50 mM NaCl, 0.2% Triton X-100, 0.5 mM Na3VO4, 0.5 mM PMSF). All wash buffer was removed and beads were resuspended in 25 μl of 4× LDS Loading Buffer (Thermo Fisher, Grand Island, NY) with 4 μl of 10× Bolt Sample Reducing Agent (Thermo Fisher), followed by Western Blotting. Samples were boiled 5 min and run on 4-12% Bis-Tris Plus gels (Thermo Fisher), followed by transfer to Immobilon-P PVDF membranes (Millipore, Billerica, MA). Membranes were blocked 1 hr at room temperature in 3% BSA in TBS containing 0.05% Tween-20 (TBS-T) followed by overnight incubation with pEphA/B (1:500) and EphA2 (Santa Cruz) (1:1000) primary antibodies. Membranes were washed in TBS-T and incubated with goat anti-rabbit-HRP (1:5000) secondary antibody 1 hr at room temperature, followed by washing and developing with Luminol Reagent (Santa Cruz). Band intensities were quantified using Quantity One software (Bio-Rad, Hercules, CA).

[2] = system: MDA-MB-231 cells; assay: Clonogenic (colony formation) assay; format: cell-based; details: 0.08-10 μM, 14 days
Procedure: MDA-MB-231 cells (1000 cells/well) were seeded in 12-well plates and cultured for 24 h, followed by treatment with various concentrations of the Doxazosin analogs (0, 0.08, 0.4, 2 and 10 μM) in 0.5% DMSO for 14 days. After washing with PBS, colonies were fixed in 4% paraformaldehyde in PBS, washed in 20% methanol, and stained with 0.5% crystal violet.

[3] = biological target: T2, rat α1a adrenergic receptor (Rattus norvegicus, UniProt P43140); assay: Adrenoceptor binding, [3H]-prazosin competition; details: [3H]-prazosin 0.25 nM, triplicate, mean±SD; read-out: IC50, α-adrenoceptor binding
T2 construct: Eurofins Panlabs Taiwan, Ltd. (contract assay)
T2 sequence (P43140 1-466): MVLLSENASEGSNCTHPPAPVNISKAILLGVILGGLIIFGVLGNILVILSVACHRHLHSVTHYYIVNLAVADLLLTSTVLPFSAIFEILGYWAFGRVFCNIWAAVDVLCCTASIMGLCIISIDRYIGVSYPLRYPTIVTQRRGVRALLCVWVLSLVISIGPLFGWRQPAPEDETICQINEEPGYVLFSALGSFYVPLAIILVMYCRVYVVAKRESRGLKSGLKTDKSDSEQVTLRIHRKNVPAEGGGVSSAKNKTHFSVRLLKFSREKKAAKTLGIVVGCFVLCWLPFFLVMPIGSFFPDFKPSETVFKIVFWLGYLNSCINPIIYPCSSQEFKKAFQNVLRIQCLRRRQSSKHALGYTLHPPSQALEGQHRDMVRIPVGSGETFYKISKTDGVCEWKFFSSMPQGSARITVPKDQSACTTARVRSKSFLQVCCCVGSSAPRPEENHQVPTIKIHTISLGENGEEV
Procedure: Analysis of Doxazosin and analog binding to rat α1a adrenergic receptor was performed by Eurofins Panlabs Taiwan, Ltd. (Taiwan). [^3H]-prazosin at 0.25 nM was used as the radioligand. […] Non-specific binding was defined by use of 10 μM phentolamine. Incubations were terminated by vacuum filtration over 0.1% PEI pretreated glass fiber filters and filters were washed for 10 s with ice cold 0.1M NaCl and radioactivity retained on the filters was determined by liquid scintillation spectrometry. IC50 values were determined by a non-linear regression analysis using GraphPad Prism v.5 (GraphPad).

[4] = biological target: T1, EphA2; assay: EphA2 internalization in MDA-MB-231 cells (immunofluorescence, Example 2); format: cell-based; set-up: expressed in transfected cells; host or cells: MDA-MB-231 (MDA-231-A2 / MDA-MB-231-A2), puromycin selected; details: 1 hr, doses 0.4, 2, 10, 50 μM
Procedure: This was performed using the MDA-MB-231 cell line. This cell line spreads well in culture, thereby facilitating immunofluorescence detection of cell surface and intracellular EphA2 (FIG. 28). […] MDA-MB-231 cells were plated in 24-well plates on 10 mm square coverslips coated with 10 μg/ml fibronectin and incubated 24-48 hrs before treatment with 50 μM Doxazosin and various doses of compound 27 (0.4, 2, 10, 50 μM) in 0.5% DMSO for 1 hr. As another positive control, cells were treated with 2 μg/ml ephrin-A1-Fc. Cells were then washed with PBS and fixed with 4% paraformaldehyde (Electron Microscopy Sciences, Hatfield, PA) on ice for 10 min, followed by washing and permeabilization with 0.4% NP-40 for 10 min on ice. […] Cells were then incubated in primary mouse EphA2 antibody (D7, 1:100) in 0.1% BSA/PBS for 1 hr at room temperature, washed in PBS and BSA/PBS, followed by incubation in secondary donkey anti-mouse Alexa Fluor 488 antibody (1:300) in BSA/PBS for 30 min at room temperature. Cells were washed in PBS and BSA/PBS, followed by mounting in DAPI Mounting Medium (Electron Microscopy Sciences). Images were taken with a Leica microscope.

T1 sequence (P29317 24-976): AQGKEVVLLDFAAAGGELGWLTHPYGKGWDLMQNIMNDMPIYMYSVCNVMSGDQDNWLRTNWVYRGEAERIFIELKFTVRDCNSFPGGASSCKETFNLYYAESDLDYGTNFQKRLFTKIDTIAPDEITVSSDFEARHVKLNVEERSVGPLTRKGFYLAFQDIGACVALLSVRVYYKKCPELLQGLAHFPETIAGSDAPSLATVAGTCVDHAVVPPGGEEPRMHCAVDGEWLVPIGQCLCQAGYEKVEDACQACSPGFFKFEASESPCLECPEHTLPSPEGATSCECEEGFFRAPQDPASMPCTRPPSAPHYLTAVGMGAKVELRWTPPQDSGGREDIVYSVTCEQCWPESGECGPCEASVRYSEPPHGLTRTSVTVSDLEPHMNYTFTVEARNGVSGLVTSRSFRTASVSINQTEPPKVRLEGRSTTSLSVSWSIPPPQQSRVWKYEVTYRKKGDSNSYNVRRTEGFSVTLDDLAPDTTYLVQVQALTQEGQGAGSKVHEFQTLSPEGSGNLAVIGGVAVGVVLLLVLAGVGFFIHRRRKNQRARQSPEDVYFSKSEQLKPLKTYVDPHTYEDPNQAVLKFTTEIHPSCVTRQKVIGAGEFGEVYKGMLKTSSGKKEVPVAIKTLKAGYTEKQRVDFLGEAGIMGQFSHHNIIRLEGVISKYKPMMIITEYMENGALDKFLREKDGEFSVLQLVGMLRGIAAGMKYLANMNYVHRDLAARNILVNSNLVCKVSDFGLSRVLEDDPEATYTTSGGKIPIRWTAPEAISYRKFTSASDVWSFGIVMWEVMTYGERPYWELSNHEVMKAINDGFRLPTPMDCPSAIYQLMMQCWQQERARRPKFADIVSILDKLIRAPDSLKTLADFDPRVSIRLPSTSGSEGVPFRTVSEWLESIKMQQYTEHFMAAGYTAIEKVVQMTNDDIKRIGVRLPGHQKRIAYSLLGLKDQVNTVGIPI

## COc1cc2nc(N3CCN(C(=O)c4ccc5ccccc5c4)CC3)nc(N)c2cc1OC [Compound 1, (4-(4-amino-6,7-dimethoxyquinazolin-2-yl)piperazin-1-yl)(naphthalen-2-yl)methanone]
[1]
  EphA2 activation compared to 50 μM Doxazosin: higher activity than compound 3; also recorded: did not show a much higher activity than the lead compound Doxazosin

## COc1cc2nc(N3CCN(C(=O)c4cccc(-c5ccccc5)c4)CC3)nc(N)c2cc1OC [Compound 2, [1,1′-biphenyl]-3-yl(4-(4-amino-6,7-dimethoxyquinazolin-2-yl)piperazin-1-yl)methanone]
[1]
  EphA2 activation compared to 50 μM Doxazosin: higher activity than compound 3; also recorded: did not show a much higher activity than the lead compound Doxazosin

## COc1cc2nc(N3CCN(C(=O)c4ccc(Cl)c([N+](=O)[O-])c4)CC3)nc(N)c2cc1OC [Compound 13, (4-(4-amino-6,7-dimethoxyquinazolin-2-yl)piperazin-1-yl)(4-chloro-3-nitrophenyl)methanone]
[1]
  EphA2 activation compared to 50 μM Doxazosin: decreases the activity

## CCCCCC(=O)N1CCN(c2nc(N)c3cc(OC)c(OC)cc3n2)CC1 [Compound 23, 1-(4-(4-amino-6,7-dimethoxyquinazolin-2-yl)piperazin-1-yl)hexan-1-one]
[1]
  EphA2 activation compared to 50 μM Doxazosin: slightly decreased activity
[2]
  inhibition of colony formation: moderate activity to inhibit the colony formation

## COc1cc2nc(N3CCN(C(=O)Cc4ccc(OCc5ccccc5)cc4)CC3)nc(N)c2cc1OC [Compound 24, 1-(4-(4-amino-6,7-dimethoxyquinazolin-2-yl)piperazin-1-yl)-2-(4-(benzyloxy)phenyl)ethanone]
[1]
  EphA2 activation compared to 50 μM Doxazosin: potent EphA2 activation; also recorded: improved EphA2 activation compared to Doxazosin
[3]
  IC50: 4.28 ± 3.1 nM
[2]
  inhibition of colony formation: slightly weaker activity compared to compound 27; also recorded: inhibit the colony formation

## COc1ccc(C(=O)N2CCN(C(=O)c3ccc(OC)cc3)CC2)cc1 [Compound 25, piperazine-1,4-diylbis((4-methoxyphenyl)methanone)]
[1]
  EphA2 activation compared to 50 μM Doxazosin: significantly decreased activity

## CSc1ccc(C(=O)N2CCN(C(=O)c3ccc(SC)cc3)CC2)cc1 [Compound 26, piperazine-1,4-diylbis((4-(methylthio)phenyl)methanone)]
[1]
  EphA2 activation compared to 50 μM Doxazosin: significantly decreased activity

## COc1cc2nc(N3CCN(C(=O)CCCCCCCCCCC(=O)N4CCN(c5nc(N)c6cc(OC)c(OC)cc6n5)CC4)CC3)nc(N)c2cc1OC [Compound 27, 1,12-bis(4-(4-amino-6,7-dimethoxyquinazolin-2-yl)piperazin-1-yl)dodecane-1,12-dione]
[1]
  EphA2 activation compared to 50 μM Doxazosin: superior activity within the new compound pool; also recorded: significantly increased activity compared to Doxazosin; also recorded: the most active one in the SAR study; also recorded: improved EphA2 activation compared to Doxazosin
[3]
  IC50: 2.5 ± 1.62 nM
[2]
  inhibition of colony formation: inhibited colony formation even at nanomolar concentrations; also recorded: inhibit the colony formation; also recorded: inhibits cancer cell colony formation
[4]
  concentration at which EphA2 internalization happened: 0.4 µM

## COc1cc2nc(N3CCN(C(=O)CCCCC(=O)N4CCN(c5nc(N)c6cc(OC)c(OC)cc6n5)CC4)CC3)nc(N)c2cc1OC [Compound 28, 1,6-bis(4-(4-amino-6,7-dimethoxyquinazolin-2-yl)piperazin-1-yl)hexane-1,6-dione]
[1]
  EphA2 activation compared to 50 μM Doxazosin: does not show any activity to activate EphA2

## COc1cc2nc(N3CCN(C(=O)C4COc5ccccc5O4)CC3)nc(NC(C)=O)c2cc1OC (centres unmarked) [Compound 29, N-(2-(4-(2,3-dihydrobenzo[b][1,4]dioxine-2-carbonyl)piperazin-1-yl)-6,7-dimethoxyquinazolin-4-yl)acetamide]
[1]
  EphA2 activation compared to 50 μM Doxazosin: significantly diminishes the activity

## COc1cc2nc(N3CCN(C(=O)Cc4ccc(OCc5ccccc5)cc4)CC3)nc(NC(C)=O)c2cc1OC [Compound 30, N-(2-(4-(2-(4-(benzyloxy)phenyl)acetyl)piperazin-1-yl)-6,7-dimethoxyquinazolin-4-yl)acetamide]
[1]
  EphA2 activation compared to 50 μM Doxazosin: significantly diminishes the activity

## COc1cc2nc(N3CCN(C(=O)Cc4ccc(OCc5ccccc5)cc4)CC3)nc(N3CCCCC3)c2cc1OC [Compound 31, 2-(4-(benzyloxy)phenyl)-1-(4-(6,7-dimethoxy-4-(piperidin-1-yl)quinazolin-2-yl)piperazin-1-yl)ethanone]
[1]
  EphA2 activation compared to 50 μM Doxazosin: harm the EphA2 activation

## COc1cc2nc(N3CCN(C(=O)Cc4ccc(OCc5ccccc5)cc4)CC3)nc(N3CCCC3)c2cc1OC [Compound 32, 2-(4-(benzyloxy)phenyl)-1-(4-(6,7-dimethoxy-4-(pyrrolidin-1-yl)quinazolin-2-yl)piperazin-1-yl)ethanone]
[1]
  EphA2 activation compared to 50 μM Doxazosin: harm the EphA2 activation

## CCOc1cc2nc(N3CCN(C(=O)Cc4ccc(OCc5ccccc5)cc4)CC3)nc(N)c2cc1OCC [Compound 33, 1-(4-(4-amino-6,7-diethoxyquinazolin-2-yl)piperazin-1-yl)-2-(4-(benzyloxy)phenyl)ethanone]
[1]
  EphA2 activation compared to 50 μM Doxazosin: diminishes the activity
